Read-outs that look alike come from different tables or passages of the source.
Legend:
α6β3β4α5 = molecular target: T1, α6β3β4α5 (Homo sapiens, UniProt P30926+Q15825); test: Competition binding to α6β3β4α5 receptors in membranes of SH-EP1/α6β3β4α5 cells ([3H]-epibatidine); details: membrane competition binding
T1 construct: host or cells: SH-EP1

Human α4β2 = molecular target: T2, Human α4β2 (Homo sapiens, UniProt P17787+P43681); test: Competition binding to human α4β2 receptors in membranes of SH-EP1/human α4β2 cells ([3H]-nicotine); details: membrane competition binding
T2 construct: host or cells: SH-EP1

Rat α4β2 = molecular target: T3, Rat α4β2 (Rattus norvegicus, UniProt P09483+P12390); test: Competition binding to rat α4β2 receptors in rat cortical membranes; details: rat cortex membranes
T3 construct: Rat cortices were obtained from Analytical Biological Services; tissue Analytical Biological Services, Incorporated (ABS, Wilmington, Del.); host or cells: rat cortex (female Sprague-Dawley)
Method: Preparation of membranes from rat tissues. Rat cortices were obtained from Analytical Biological Services, Incorporated (ABS, Wilmington, Del.). Tissues were dissected from female Sprague-Dawley rats, frozen and shipped on dry ice. Tissues were stored at −20° C. until needed for membrane preparation. […] The resulting homogenate was centrifuged at 40,000 g for 20 minutes at 4° C. and the resulting pellet was resuspended in 20 volumes of ice-cold water. After 60-minute incubation at 4° C., a new pellet was collected by centrifugation at 40,000 g for 20 minutes at 4° C. The final pellet was resuspended in preparative buffer and stored at −20° C. On the day of the assay, tissue was thawed, centrifuged at 40,000 g for 20 minutes and then resuspended in PBS (Dulbecco's Phosphate Buffered Saline, Life Technologies, pH 7.4) to a final concentration of 2-3 mg protein/mL. Protein concentrations were determined using the Pierce BCA Protein Assay kit (Pierce Biotechnology, Rockford, Ill.), with bovine serum albumin as the standard.
Competition binding to receptors in membrane preparations. […] In brief, membranes were reconstituted from frozen stocks (approximately 0.2 mg protein) and incubated for 2 h on ice in […] assay buffer (PBS) in the presence of competitor compound (0.001 nM to […]) and radioligand. [^3H]-nicotine (L-(−)-[N-methyl-3H]-nicotine, 69.5 Ci/mmol, Perkin-Elmer Life Sciences) was used for human α4β2 binding studies. [^3H]-epibatidine (52 Ci/mmol, Perkin-Elmer Life Sciences) was used for binding studies at the other receptor subtypes. […] Filters were washed 3 times and the radioactivity retained was determined by liquid scintillation counting.
Binding data analysis. Binding data were expressed as percent total control binding. Replicates for each point were averaged and plotted against the log of drug concentration.

| Structure (SMILES) | Ki (α6β3β4α5; α6β3β4α5 Ki) [nM] | Ki (Human α4β2; Human α4β2 Ki) [nM] | Ki (Rat α4β2; Rat α4β2 Ki) [nM] | Ki (α6β3β4α5; read-out: α6β3β4α5 Ki) [nM] | Ki (Rat α4β2; read-out: Rat α4β2 Ki) [nM] | Ki (Human α4β2; read-out: Human α4β2 Ki) [nM] |
| --- | --- | --- | --- | --- | --- | --- |
| O=C([C@@H]1C[C@@H]1F)N1CC2CC(C1)N2 | 280 | 1.8 | 0.86 |  |  |  |
| O=C(c1ccc(Cl)o1)N1C2CNCC1C2 [6-(2-chlorofuran-5-yl)carbonyl-3,6-diazabicyclo[3.1.1]heptane] |  | 38 | 44 |  |  |  |
| O=C(C1CC(F)(F)C1)N1CC2CC(C1)N2 |  | 16 | 19 | 370 |  |  |
| CCC[C@H]1C[C@H]1C(=O)N1CC2CC(C1)N2 |  | 44 |  | 220 | 130 |  |
| CCCC(=O)N1C2CNCC1C2 |  | 9.9 | 5.1 | 230 |  |  |
| O=C(CC1CC1)N1CC2CC(C1)N2 |  | 64 | 17 |  |  |  |
| O=C(CC1C=CCC1)N1CC2CC(C1)N2 (stereo not shown) |  | 11 | 34 |  |  |  |
| CC1CC(C(=O)N2CC3CC(C2)N3)C1 (stereo not shown) |  | 23 | 22 | 380 |  |  |
| O=C(NCc1ccccc1)N1CC2CC(C1)N2 |  |  |  | 400 | 200 | 270 |
| C[C@@H]1C[C@@H]1C(=O)N1C2CNCC1C2 |  |  |  | 30000 |  | 820 |
| O=C([C@@H]1C[C@H]1c1ccccc1)N1CC2CC(C1)N2 | 64 | 4.7 | 4.4 |  |  |  |
| O=C(CC1CCOC1)N1C2CNCC1C2 (stereo not shown) |  |  |  | 1600 | 130 | 330 |
| O=C(NCc1ccc(Cl)c(Cl)c1)N1C2CNCC1C2 |  |  |  | 5900 |  | 3100 |
| CCC(C)C(=O)N1CC2CC(C1)N2 (stereo not shown) |  |  |  |  | 240 | 150 |
| O=C(CCC(F)(F)F)N1C2CNCC1C2 |  |  | 72 | 1500 |  | 180 |
| O=C([C@H]1C[C@@H]1F)N1CC2CC(C1)N2 [drawing 165] | 780 | 4.6 | 1.6 |  |  |  |
| CCC[C@H]1C[C@H]1C(=O)N1C2CNCC1C2 |  |  |  | 1100 |  | 570 |
| O=C([C@@H]1C[C@H]2C=C[C@H]1C2)N1C2CNCC1C2 |  |  |  | 1300 |  | 300 |
| O=C(C1CC2CCC1C2)N1CC2CC(C1)N2 (stereo not shown) |  | 60 |  |  | 220 |  |
| O=C(C1CCCC1)N1CC2CC(C1)N2 |  | 170 | 77 |  |  |  |

| Structure (SMILES) | Ki (α6β3β4α5; α6β3β4α5 Ki) [nM] | Ki (Human α4β2; Human α4β2 Ki) [nM] | Ki (Rat α4β2; Rat α4β2 Ki) [nM] | Ki (α6β3β4α5; read-out: α6β3β4α5 Ki) [nM] | Ki (Rat α4β2; read-out: Rat α4β2 Ki) [nM] | Ki (Human α4β2; read-out: Human α4β2 Ki) [nM] |
| --- | --- | --- | --- | --- | --- | --- |
| C[C@@H]1C(C(=O)N2C3CNCC2C3)[C@@H]1C (stereo partly shown) |  |  |  | 2400 |  | 610 |
| CC1CC1C(=O)N1C2CNCC1C2 (stereo not shown) |  | 46 | 34 |  |  |  |
| O=C(CC1C=CCC1)N1C2CNCC1C2 (stereo not shown) |  |  | 71 |  |  | 150 |
| O=C(C1CC=CC1)N1CC2CC(C1)N2 |  | 37 | 260 |  |  |  |
| CC(C)CC(=O)N1CC2CC(C1)N2 |  | 34 | 70 |  |  |  |
| O=C(c1cc(Cl)cc(Cl)c1)N1C2CNCC1C2 |  |  |  | 14000 |  | 1200 |
| O=C(c1cnco1)N1C2CNCC1C2 |  | 72 | 17 |  |  |  |
| CC1(C)CC(C(=O)N2CC3CC(C2)N3)C1 |  | 69 |  |  | 520 |  |
| Cc1ncoc1C(=O)N1CC2CC(C1)N2 |  |  | 38 | 11000 |  |  |
| Cc1cc(C(=O)N2C3CNCC2C3)no1 |  | 100 | 50 |  |  |  |
| O=C(NCc1ccc(Cl)cc1)N1C2CNCC1C2 |  |  |  | 3400 |  | 6500 |
| O=C(CC1CCCC1)N1CC2CC(C1)N2 |  |  |  |  |  | 440 |
| O=C([C@H]1C[C@H]1F)N1C2CNCC1C2 |  | 3.7 | 0.89 |  |  |  |
| O=C([C@H]1CCCO1)N1C2CNCC1C2 |  |  |  | 1100 |  | 390 |
| O=C(NCc1ccc(Cl)cc1Cl)N1C2CNCC1C2 |  |  |  | 21000 |  | 1100 |
| Cn1c(C(=O)N2C3CNCC2C3)cc2ccccc21 |  |  |  |  |  | 2900 |
| O=C(OCCF)N1CC2CC(C1)N2 [3-(2-fluoroethoxy)carbonyl-3,6-diazabicyclo[3.1.1]heptane] |  | 5.9 | 52 |  |  |  |
| O=C([C@H]1C[C@@H]1F)N1C2CNCC1C2 |  | 2.2 | 1 |  |  |  |
| O=C(CC1CCCO1)N1C2CNCC1C2 (stereo not shown) |  |  |  |  |  | 2000 |
